Measurements taken from PMC6522510 (Nature Communications, 2019).
Like-named read-outs stand apart in the source and are kept apart here.

What was measured:
Parameters in all cases: species or system AML cell lines (8); Primary HTS, single concentration about 10 uM, Cell Titer Glo viability; log10 luminescence, per cent inhibition relative to cycloheximide control
Conditions in all cases: 72 h, inhibitor
CHRF288-11 = tested on: CHRF288-11
CMK = tested on: CMK
CMS = tested on: CMS
M07e = tested on: M07e
ML-2 = tested on: ML-2
MOLM-13 = tested on: MOLM-13
MV4-11 = tested on: MV4-11
U937 = tested on: U937
[1] = relative to cycloheximide control, log10 luminescence
[2] = relative to cycloheximide control, log10 luminescence, CHRF288-11 %inh, 10 µM
[3] = relative to cycloheximide control, log10 luminescence, CMK %inh, 10 µM
[4] = relative to cycloheximide control, log10 luminescence, CMS %inh, 10 µM
[5] = relative to cycloheximide control, log10 luminescence, M07e %inh, 10 µM
[6] = relative to cycloheximide control, log10 luminescence, ML-2 %inh, 10 µM
[7] = relative to cycloheximide control, log10 luminescence, MOLM-13 %inh, 10 µM
[8] = relative to cycloheximide control, log10 luminescence, MV4-11 %inh, 10 µM
[9] = relative to cycloheximide control, log10 luminescence, U937 %inh, 10 µM

Compound	CHRF288-11 %inh (CHRF288-11; [1]) [%]	CMK %inh (CMK; [1]) [%]	CMS %inh (CMS; [1]) [%]	M07e %inh (M07e; [1]) [%]	ML-2 %inh (ML-2; [1]) [%]	MOLM-13 %inh (MOLM-13; [1]) [%]	MV4-11 %inh (MV4-11; [1]) [%]	U937 %inh (U937; [1]) [%]	also measured
Oc1ncc(N(CCCl)CCCl)c(O)n1 [SJ000518988-1, URACIL MUSTARD]									CHRF288-11 %inh (CHRF288-11; 10 µM): 3.507%; CMK %inh (CMK; 10 µM): -4.305%; CMS %inh (CMS; 10 µM): 1.52%; M07e %inh (M07e; 10 µM): 2.028%; ML-2 %inh (ML-2; 10 µM): 1.705%; MOLM-13 %inh (MOLM-13; 10 µM): -0.3938%; MV4-11 %inh (MV4-11; 10 µM): -1.171%; U937 %inh (U937; 10 µM): -0.2311%
CO[C@H]1O[C@@H]2O[C@@]3(C)CC[C@H]4[C@H](C)CC[C@@H]([C@H]1C)[C@@]24OO3 [SJ000519015-1]	-0.3434	0.2838	7.594	0.2631	5.533	2.58	9.901	20.8	
CC[C@H](C)[C@@H]1NC(=O)[C@H](Cc2ccc(O)cc2)NC(=O)[C@@H](N)CSSC[C@@H](C(=O)N2CCC[C@H]2C(=O)N[C@@H](CC(C)C)C(=O)NCC(N)=O)NC(=O)[C@H](CC(N)=O)NC(=O)[C@H](CCC(N)=O)NC1=O [SJ000519020-1, OXYTOCIN]	-2.465	-2.47	-0.7099	0.04623	-0.7579	-2.698	1.343	-1.829	
CCCN(CCc1ccc(O)cc1)C(=O)[C@@H](C)c1cccc(C(=O)c2ccccc2)c1 [SJ000520373-2, NMDA298-1]	9.808	9.519	3.128	11.25	1.661	13.67	11.33	10.97	
C[C@@H](O)[C@@H]1NC(=O)[C@H](CCCCN)NC(=O)[C@@H](Cc2c[nH]c3ccccc23)NC(=O)[C@H](Cc2ccccc2)NC(=O)[C@@H](NC(=O)[C@H](N)Cc2ccccc2)CSSC[C@@H](C(=O)N[C@H](CO)[C@@H](C)O)NC1=O [SJ000520506-1, OCTREOTIDE ACETATE]	5.062	-5.736	0.6202	-0.4484	0.4552	0.6504	0.9577	-3.486	
O=C1NC(=O)/C(=C\c2ccc3nccnc3c2)S1 [SJ000534768-3, PI 3-K-GAMMA-INHIBITOR | 648450-29-7 | AS-605240 | AS605240 | PI 3-KY INHIBITOR]									CHRF288-11 %inh (CHRF288-11; [2]): -5.698%; CMK %inh (CMK; [3]): -0.8645%; CMS %inh (CMS; [4]): -2.146%; M07e %inh (M07e; [5]): 2.407%; ML-2 %inh (ML-2; [6]): -0.2464%; MOLM-13 %inh (MOLM-13; [7]): 3.402%; MV4-11 %inh (MV4-11; [8]): 0.09671%; U937 %inh (U937; [9]): -0.7574%
O=C1NC(=O)/C(=C\c2ccc3nccnc3c2)S1 [SJ000534768-4, PI 3-K-GAMMA-INHIBITOR | 648450-29-7 | AS-605240 | AS605240 | PI 3-KY INHIBITOR]									CHRF288-11 %inh (CHRF288-11; [2]): -3.707%; CMK %inh (CMK; [3]): 2.377%; CMS %inh (CMS; [4]): 2.882%; M07e %inh (M07e; [5]): 2.923%; ML-2 %inh (ML-2; [6]): 1.156%; MOLM-13 %inh (MOLM-13; [7]): 1.092%; MV4-11 %inh (MV4-11; [8]): -0.9615%; U937 %inh (U937; [9]): 0.2634%
CCOC(=O)C1=C(C)NC(C)=C(C(=O)OCC)C1c1ccccc1/C=C/C(=O)OC(C)(C)C [SJ000541098-2, LACIDIPINE]									CHRF288-11 %inh (CHRF288-11; [2]): -1.312%; CMK %inh (CMK; [3]): 1.983%; CMS %inh (CMS; [4]): -2.509%; M07e %inh (M07e; [5]): -0.9057%; ML-2 %inh (ML-2; [6]): 5.24%; MOLM-13 %inh (MOLM-13; [7]): 10.16%; MV4-11 %inh (MV4-11; [8]): 6.96%; U937 %inh (U937; [9]): 12.91%
CCOC(=O)C1=C(C)NC(C)=C(C(=O)OCC)C1c1ccccc1/C=C/C(=O)OC(C)(C)C [SJ000541098-3, LACIDIPINE]									CHRF288-11 %inh (CHRF288-11; [2]): -0.4968%; CMK %inh (CMK; [3]): 6.472%; CMS %inh (CMS; [4]): 2.32%; M07e %inh (M07e; [5]): 5.059%; ML-2 %inh (ML-2; [6]): 5.833%; MOLM-13 %inh (MOLM-13; [7]): 4.748%; MV4-11 %inh (MV4-11; [8]): 8.929%; U937 %inh (U937; [9]): 2.874%
CC1(COc2ccc(CC3SC(=O)NC3=O)cc2)CCCCC1 (stereo not drawn) [SJ000546494-1, CIGLITAZONE]	3.672	0.5377	-1.931	-0.4942	1.382	-0.9508	4.011	0.7442	
Cc1cccc(Nc2cc(Cl)nc(SCC(=O)O)n2)c1C [SJ000546497-1, WY 14643 | WY-14643 | WY-14643 (PIRINIXIC ACID)]	0.5396	-0.2043	-0.6556	2.884	1.805	0.03488	2.638	0.764	
CC(C)(c1ccc(OCC2CO2)cc1)c1ccc(OCC2CO2)cc1 (stereo not drawn) [SJ000546498-1, BADGE]	3.756	0.4379	-0.9549	-0.5797	0.3622	-1.249	2.685	-0.2101	
Oc1ccc(-c2c(-c3ccccc3)nn3c(C(F)(F)F)cc(C(F)(F)F)nc23)cc1 [SJ000546500-1, PHTPP]	-1.975	-2.936	-0.8785	-1.02	-0.1539	-1.733	0.8155	-1.023	
CCCCCS(=O)(=O)CCCCCCCCCCn1c(-c2ccc(O)cc2)c(C)c2cc(O)ccc21 [SJ000546504-1, ZK 164015]	8.284	21	7.105	14.67	14.83	28.37	19.87	10.37	
CCC[C@@H]1CC2=CC(=O)CC[C@]2(C)[C@H]2CC[C@@]3(C)[C@@H](CC[C@@]34CCC(=O)O4)[C@H]12 [SJ000546508-1, RU 26752]	-0.7374	-5.773	0.3867	0.5508	2.095	-0.802	1.882	-0.3202	
